In PubChem BioAssay (NCI):
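Briefly, cells in 96-well plates were exposed to five compound concentrations for 48 h, and endpoints were estimated by linear interpolation. The concentration for 50% growth inhibition is given as GI50. TGI is the concentration that stops growth completely.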

Assays:
Assay in all cases: NCI anticancer screen, dose series, 48 h
NCI/ADR-RES ovarian = test system: NCI/ADR-RES ovarian
PC-3 prostate = test system: PC-3 prostate
OVCAR-5 ovarian = test system: OVCAR-5 ovarian
NCI-H522 lung = test system: NCI-H522 lung
RXF 393 renal = test system: RXF 393 renal
MOLT-4 leukemia = test system: MOLT-4 leukemia
SNB-19 CNS = test system: SNB-19 CNS
CCRF-CEM leukemia = test system: CCRF-CEM leukemia
NCI-H460 lung = test system: NCI-H460 lung
HOP-92 NSCLC = test system: HOP-92 NSCLC

CC/C=N\N1C(N)=C(C#N)C(C#N)(C#N)C1CC (stereo not drawn)
TGI (NCI/ADR-RES ovarian): > 100 µM | TGI (PC-3 prostate): > 100 µM | TGI (OVCAR-5 ovarian): > 100 µM | TGI (NCI-H522 lung): > 100 µM | TGI (RXF 393 renal): > 100 µM | TGI (MOLT-4 leukemia): > 100 µM | TGI (SNB-19 CNS): > 100 µM | TGI (CCRF-CEM leukemia): > 100 µM

O=C1c2cc3c(cc2-c2c1c1ccc(Cl)cc1c(=O)n2CCCn1ccnc1)OCO3
GI50 (NCI/ADR-RES ovarian): < 0.01 µM | TGI (NCI/ADR-RES ovarian): 15.2 µM | GI50 (PC-3 prostate): 0.0438 µM | TGI (PC-3 prostate): > 100 µM | GI50 (NCI-H460 lung): < 0.01 µM | TGI (NCI-H460 lung): 10.3 µM | GI50 (OVCAR-5 ovarian): 0.0448 µM | TGI (OVCAR-5 ovarian): 49 µM | GI50 (NCI-H522 lung): 0.0182 µM | TGI (NCI-H522 lung): 30.7 µM | GI50 (RXF 393 renal): < 0.01 µM | TGI (RXF 393 renal): 0.0518 µM | GI50 (MOLT-4 leukemia): < 0.01 µM | TGI (MOLT-4 leukemia): 1.17 µM | GI50 (HOP-92 NSCLC): 0.0229 µM | TGI (HOP-92 NSCLC): 0.491 µM | GI50 (CCRF-CEM leukemia): < 0.01 µM | TGI (CCRF-CEM leukemia): 10.5 µM

CC(C)(C)c1ccnc(N=C2N=C(Nc3cc(C(C)(C)C)ccn3)c3ccccc32)c1
TGI (NCI-H460 lung): > 100 µM | TGI (OVCAR-5 ovarian): > 100 µM | TGI (NCI-H522 lung): 44.8 µM | TGI (RXF 393 renal): 54.9 µM | TGI (MOLT-4 leukemia): 85.8 µM | TGI (HOP-92 NSCLC): 47.1 µM | TGI (SNB-19 CNS): 44.4 µM | TGI (CCRF-CEM leukemia): > 100 µM

CC(C)(C)N=NC(C)(C)N=C=O
TGI (NCI-H460 lung): > 100 µM | TGI (OVCAR-5 ovarian): > 100 µM | TGI (NCI-H522 lung): > 100 µM | TGI (RXF 393 renal): > 100 µM | TGI (MOLT-4 leukemia): > 100 µM | TGI (HOP-92 NSCLC): > 100 µM | TGI (SNB-19 CNS): > 100 µM | TGI (CCRF-CEM leukemia): > 100 µM

C=C1[C@@H]2CCC3[C@]4(C)C(CC[C@@]5(C)C(=O)O[C@H](O)[C@@H]45)[C@H](O)[C@]3(C2)[C@H]1OC1OC(CO)C(O)C(O)C1O (stereo partly drawn)
TGI (NCI/ADR-RES ovarian): > 50 µM | TGI (PC-3 prostate): > 50 µM | TGI (NCI-H460 lung): > 50 µM | TGI (OVCAR-5 ovarian): > 50 µM | TGI (RXF 393 renal): > 50 µM | TGI (MOLT-4 leukemia): > 50 µM | TGI (SNB-19 CNS): > 50 µM

CC(C)(C)/C(O)=C\c1nc2cc(F)c(F)cc2[nH]c1=O
TGI (NCI/ADR-RES ovarian): > 100 µM | TGI (PC-3 prostate): > 100 µM | TGI (NCI-H460 lung): > 100 µM | TGI (RXF 393 renal): > 100 µM | TGI (MOLT-4 leukemia): > 100 µM | TGI (HOP-92 NSCLC): > 100 µM | TGI (SNB-19 CNS): > 100 µM | TGI (CCRF-CEM leukemia): > 100 µM

O=C(c1ccco1)N(C(=O)N1CCC(c2ccccc2)CC1)c1ccccc1
TGI (NCI/ADR-RES ovarian): 91 µM | TGI (PC-3 prostate): > 100 µM | TGI (OVCAR-5 ovarian): > 100 µM | TGI (RXF 393 renal): 90.9 µM | TGI (MOLT-4 leukemia): 54.2 µM | TGI (SNB-19 CNS): > 100 µM | TGI (CCRF-CEM leukemia): > 100 µM

CSc1ccc(/C=C2\N=C(c3ccccc3)N(c3nc4cc(Cl)c(F)cc4s3)C2=O)cc1
TGI (NCI/ADR-RES ovarian): 99.1 µM | TGI (PC-3 prostate): > 100 µM | TGI (NCI-H460 lung): > 100 µM | TGI (OVCAR-5 ovarian): > 100 µM | TGI (RXF 393 renal): 57.5 µM | TGI (MOLT-4 leukemia): > 100 µM | TGI (HOP-92 NSCLC): > 100 µM | TGI (SNB-19 CNS): 76.6 µM | TGI (CCRF-CEM leukemia): 55.6 µM

C=C1C[C@@H]2O[C@H]3[C@H]4[C@@H](C[C@@H](C)[C@@H](OC(C)=O)[C@H]42)[C@@H](C)CO[C@@]3(C)[C@H](OC(=O)CCCCCCC)CC1=O
TGI (NCI/ADR-RES ovarian): 35.5 µM | TGI (PC-3 prostate): 22.5 µM | TGI (NCI-H460 lung): 24.2 µM | TGI (OVCAR-5 ovarian): 21.1 µM | TGI (NCI-H522 lung): 42.6 µM | TGI (MOLT-4 leukemia): 40.8 µM | TGI (SNB-19 CNS): > 100 µM | TGI (CCRF-CEM leukemia): 23.8 µM

CCOC(=O)C(NC(=O)c1cccc(Cl)c1)(Nc1cccc(C)c1)C(F)(F)F (stereo not drawn)
TGI (NCI/ADR-RES ovarian): 38.8 µM | TGI (PC-3 prostate): 43.6 µM | TGI (NCI-H460 lung): 47.6 µM | TGI (NCI-H522 lung): 20.5 µM | TGI (RXF 393 renal): 26.2 µM | TGI (MOLT-4 leukemia): 67.8 µM | TGI (HOP-92 NSCLC): 29 µM | TGI (SNB-19 CNS): > 100 µM | TGI (CCRF-CEM leukemia): > 100 µM

CCC1(CC)C(=O)N(C(=O)c2cc(OC)c(OC)c(OC)c2)N(C(=O)c2cc(OC)c(OC)c(OC)c2)C1=O
TGI (NCI/ADR-RES ovarian): > 50 µM | TGI (PC-3 prostate): > 50 µM | TGI (NCI-H460 lung): > 50 µM | TGI (OVCAR-5 ovarian): > 50 µM | TGI (NCI-H522 lung): > 50 µM | TGI (RXF 393 renal): > 50 µM | TGI (SNB-19 CNS): > 50 µM | TGI (CCRF-CEM leukemia): > 50 µM

COc1cc(/C=N/N=C(\N)NO)c([N+](=O)[O-])cc1OC
TGI (NCI-H460 lung): > 100 µM | TGI (OVCAR-5 ovarian): > 100 µM | TGI (NCI-H522 lung): 34.4 µM | TGI (RXF 393 renal): 65.2 µM | TGI (MOLT-4 leukemia): > 100 µM | TGI (HOP-92 NSCLC): 91.7 µM | TGI (SNB-19 CNS): > 100 µM | TGI (CCRF-CEM leukemia): > 100 µM

CC(=O)Oc1ccc2c(-c3ccccc3)c(Oc3ccc(Cl)cc3)c(=O)oc2c1
TGI (PC-3 prostate): 37.7 µM | TGI (NCI-H460 lung): 27.9 µM | TGI (OVCAR-5 ovarian): 32.4 µM | TGI (NCI-H522 lung): 9.51 µM | TGI (RXF 393 renal): 33.2 µM | TGI (MOLT-4 leukemia): 34.7 µM | TGI (HOP-92 NSCLC): 22.4 µM | TGI (SNB-19 CNS): 30 µM | TGI (CCRF-CEM leukemia): 35.7 µM

CC(=N/NC(=S)N(C)C)/C(=N\NC(=S)N(C)C)c1ccccc1
TGI (NCI/ADR-RES ovarian): 4.99 µM | TGI (PC-3 prostate): 4.64 µM | TGI (NCI-H460 lung): 3.91 µM | TGI (OVCAR-5 ovarian): 5.03 µM | TGI (NCI-H522 lung): 3.78 µM | TGI (RXF 393 renal): 2.95 µM | TGI (MOLT-4 leukemia): > 100 µM | TGI (HOP-92 NSCLC): 3.53 µM | TGI (SNB-19 CNS): 6.85 µM

CC1(C)N=C(N)N=C(N)N1c1cccc(Cl)c1
TGI (NCI/ADR-RES ovarian): > 100 µM | TGI (PC-3 prostate): > 100 µM | TGI (NCI-H460 lung): > 100 µM | TGI (OVCAR-5 ovarian): > 100 µM | TGI (NCI-H522 lung): > 100 µM | TGI (RXF 393 renal): > 100 µM | TGI (HOP-92 NSCLC): > 100 µM | TGI (SNB-19 CNS): > 100 µM | TGI (CCRF-CEM leukemia): > 100 µM

CCOC(=O)c1c(SCc2cc(=O)[nH]c(=O)[nH]2)n(-c2ccccc2)c(=S)n(-c2ccccc2)c1=O
TGI (NCI/ADR-RES ovarian): > 100 µM | TGI (PC-3 prostate): > 100 µM | TGI (NCI-H460 lung): > 100 µM | TGI (OVCAR-5 ovarian): > 100 µM | TGI (RXF 393 renal): > 100 µM | TGI (MOLT-4 leukemia): > 100 µM | TGI (SNB-19 CNS): > 100 µM | TGI (CCRF-CEM leukemia): > 100 µM

O=C1Nc2cc(F)ccc2C1=O
TGI (NCI-H460 lung): > 100 µM | TGI (OVCAR-5 ovarian): > 100 µM | TGI (NCI-H522 lung): > 100 µM | TGI (RXF 393 renal): > 100 µM | TGI (MOLT-4 leukemia): > 100 µM | TGI (HOP-92 NSCLC): > 100 µM | TGI (SNB-19 CNS): > 100 µM | TGI (CCRF-CEM leukemia): > 100 µM

CCCCN(CCCC)CC(C(C)=O)C(c1ccccc1)c1c(O)c2ccccc2oc1=O (stereo not drawn)
TGI (NCI-H460 lung): > 100 µM | TGI (OVCAR-5 ovarian): > 100 µM | TGI (NCI-H522 lung): > 100 µM | TGI (RXF 393 renal): > 100 µM | TGI (MOLT-4 leukemia): > 100 µM | TGI (HOP-92 NSCLC): > 100 µM | TGI (SNB-19 CNS): > 100 µM | TGI (CCRF-CEM leukemia): > 100 µM

CS(=O)(=O)Nc1ccc2ccccc2c1
TGI (NCI/ADR-RES ovarian): > 100 µM | TGI (PC-3 prostate): > 100 µM | TGI (NCI-H460 lung): > 100 µM | TGI (OVCAR-5 ovarian): > 100 µM | TGI (NCI-H522 lung): > 100 µM | TGI (MOLT-4 leukemia): > 100 µM | TGI (HOP-92 NSCLC): > 100 µM | TGI (SNB-19 CNS): > 100 µM | TGI (CCRF-CEM leukemia): > 100 µM

O=C(NC(C(F)(F)F)(C(F)(F)F)P(=O)(Cc1ccccc1)Cc1ccccc1)C(C(F)(F)F)C(F)(F)F
TGI (NCI/ADR-RES ovarian): 44 µM | TGI (PC-3 prostate): 49 µM | TGI (NCI-H460 lung): 78.3 µM | TGI (OVCAR-5 ovarian): 41.8 µM | TGI (NCI-H522 lung): 60.4 µM | TGI (RXF 393 renal): 47.6 µM | TGI (MOLT-4 leukemia): 55.1 µM | TGI (SNB-19 CNS): 59.4 µM | TGI (CCRF-CEM leukemia): > 100 µM

CNC(=O)CN(CC(=O)O)C(=O)NC
TGI (OVCAR-5 ovarian): > 100 µM | TGI (NCI-H522 lung): > 100 µM | TGI (RXF 393 renal): > 100 µM | TGI (MOLT-4 leukemia): > 100 µM | TGI (HOP-92 NSCLC): > 100 µM | TGI (SNB-19 CNS): > 100 µM | TGI (CCRF-CEM leukemia): > 100 µM

Cn1c(=O)cc(NNc2ccc(Cl)c(Cl)c2)[nH]c1=O
TGI (NCI/ADR-RES ovarian): 64.1 µM | TGI (PC-3 prostate): 25.4 µM | TGI (NCI-H460 lung): 20.3 µM | TGI (OVCAR-5 ovarian): 31.5 µM | TGI (RXF 393 renal): 38.8 µM | TGI (MOLT-4 leukemia): 58.2 µM | TGI (HOP-92 NSCLC): 28.5 µM | TGI (SNB-19 CNS): > 100 µM | TGI (CCRF-CEM leukemia): 37.3 µM

COc1ccc(C2C=C(c3ccc(C)cc3)N(c3ccc(OC)cc3[N+](=O)[O-])C3C(=O)OC(=O)C23)c(OC)c1 (stereo not drawn)
TGI (PC-3 prostate): > 100 µM | TGI (NCI-H460 lung): > 100 µM | TGI (OVCAR-5 ovarian): > 100 µM | TGI (NCI-H522 lung): 53.7 µM | TGI (MOLT-4 leukemia): 91.6 µM | TGI (SNB-19 CNS): > 100 µM | TGI (CCRF-CEM leukemia): > 100 µM
